Laboratory results reported in ChEMBL document CHEMBL4196098, “Structure-Activity Relationships and Therapeutic Potentials of 5-HT7 Receptor Ligands: An Update” (J Med Chem, 2018).
pKi: −log10 of the molar value. Each block holds one compound with its values, some of them ahead of it.

What was measured:
[1] = Intrinsic clearance in human liver microsomes; type: ADME, microsome; conditions: read-out: CLH
[2] = biological target: 5-hydroxytryptamine receptor 7 (Homo sapiens, UniProt P34969); assay: Binding affinity to 5-HT7 receptor (unknown origin)
[3] = Ratio of drug level in brain to plasma in mouse at 5 mg/kg, ip; type: ADME, organism-based; conditions: read-out: BPR
[4] = biological target: T1, 5-hydroxytryptamine receptor 7 (Rattus norvegicus, UniProt P32305); assay: Displacement of [3H]lysergide from rat recombinant 5-HT7 receptor expressed in HEK293 cell membranes incubated for 60 mins by radioligand binding assay
[5] = biological target: T2, 5-hydroxytryptamine receptor 1A (Rattus norvegicus, UniProt P19327); assay: Displacement of [3H]-8-OH-DPAT from 5-HT1A in rat hippocampal membranes incubated for 20 mins by radioligand binding assay; type: cell membranes
T2 sequence (P19327 whole entry): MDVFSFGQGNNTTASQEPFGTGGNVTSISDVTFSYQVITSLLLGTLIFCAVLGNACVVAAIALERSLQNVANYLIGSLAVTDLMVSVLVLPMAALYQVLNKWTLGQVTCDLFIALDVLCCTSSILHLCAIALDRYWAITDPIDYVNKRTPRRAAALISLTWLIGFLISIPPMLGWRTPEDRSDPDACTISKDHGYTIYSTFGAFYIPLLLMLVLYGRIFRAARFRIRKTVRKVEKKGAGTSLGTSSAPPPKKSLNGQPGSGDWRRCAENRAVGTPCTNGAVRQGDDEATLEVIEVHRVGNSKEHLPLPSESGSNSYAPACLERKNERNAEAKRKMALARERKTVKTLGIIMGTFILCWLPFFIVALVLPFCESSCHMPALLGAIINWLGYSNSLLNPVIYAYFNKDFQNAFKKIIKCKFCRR

[6] = biological target: T1, 5-hydroxytryptamine receptor 7; assay: Displacement of [3H]5-CT from rat 5-HT7 receptor expressed in HEK293 cell membranes by radioligand binding assay
[7] = biological target: T1, 5-hydroxytryptamine receptor 7; assay: Displacement of [3H]-5-CT from 5-HT7 receptor in rat hypothalamus membranes by Cheng-Prusoff equation analysis; type: cell membranes, Membrane
[8] = biological target: 5-hydroxytryptamine receptor 2A (Homo sapiens, UniProt P28223); assay: Binding affinity to 5-HT2A receptor (unknown origin)
[9] = biological target: T3, 5-hydroxytryptamine receptor 2C (Homo sapiens, UniProt P28335); assay: Binding affinity to 5-HT2c receptor (unknown origin)
T3 sequence (P28335 whole entry): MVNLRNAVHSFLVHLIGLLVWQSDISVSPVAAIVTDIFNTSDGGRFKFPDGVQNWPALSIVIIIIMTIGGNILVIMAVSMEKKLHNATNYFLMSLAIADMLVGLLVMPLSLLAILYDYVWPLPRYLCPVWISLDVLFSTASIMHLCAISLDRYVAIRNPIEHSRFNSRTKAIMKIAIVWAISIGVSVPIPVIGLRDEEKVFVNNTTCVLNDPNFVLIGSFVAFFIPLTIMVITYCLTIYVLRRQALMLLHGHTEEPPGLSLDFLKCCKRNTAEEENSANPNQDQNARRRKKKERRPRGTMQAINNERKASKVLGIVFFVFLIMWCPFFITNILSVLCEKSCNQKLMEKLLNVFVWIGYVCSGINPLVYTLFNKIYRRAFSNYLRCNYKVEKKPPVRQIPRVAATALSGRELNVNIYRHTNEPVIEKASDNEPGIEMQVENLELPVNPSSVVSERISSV

T1 sequence (P32305 whole entry): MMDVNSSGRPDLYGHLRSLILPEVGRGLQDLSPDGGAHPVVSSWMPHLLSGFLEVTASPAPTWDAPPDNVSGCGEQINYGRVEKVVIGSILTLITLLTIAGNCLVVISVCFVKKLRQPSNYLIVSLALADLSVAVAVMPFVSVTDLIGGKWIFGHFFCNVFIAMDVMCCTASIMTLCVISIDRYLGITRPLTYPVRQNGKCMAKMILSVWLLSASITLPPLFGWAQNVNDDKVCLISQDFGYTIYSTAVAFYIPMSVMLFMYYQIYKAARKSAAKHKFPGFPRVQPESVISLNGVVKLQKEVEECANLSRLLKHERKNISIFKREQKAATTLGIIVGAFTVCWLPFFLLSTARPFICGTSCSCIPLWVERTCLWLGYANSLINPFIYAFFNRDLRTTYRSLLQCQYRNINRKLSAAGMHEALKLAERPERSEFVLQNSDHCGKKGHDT
5-hydroxytryptamine receptor 7 (Homo sapiens, UniProt P34969), sequence (P34969 whole entry): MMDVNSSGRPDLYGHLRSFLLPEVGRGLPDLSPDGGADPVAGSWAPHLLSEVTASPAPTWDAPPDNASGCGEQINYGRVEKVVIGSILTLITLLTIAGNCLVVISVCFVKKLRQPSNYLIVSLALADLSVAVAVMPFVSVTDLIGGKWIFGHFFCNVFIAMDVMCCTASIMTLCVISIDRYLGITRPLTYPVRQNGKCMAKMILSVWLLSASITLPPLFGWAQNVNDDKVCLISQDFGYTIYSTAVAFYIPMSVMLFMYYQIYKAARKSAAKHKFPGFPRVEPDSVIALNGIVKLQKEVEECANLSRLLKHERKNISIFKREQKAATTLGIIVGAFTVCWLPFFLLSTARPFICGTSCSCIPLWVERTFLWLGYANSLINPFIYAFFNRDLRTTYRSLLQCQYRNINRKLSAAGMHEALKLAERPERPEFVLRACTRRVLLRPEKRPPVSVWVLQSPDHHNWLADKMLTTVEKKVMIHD
5-hydroxytryptamine receptor 2A, sequence (P28223 whole entry): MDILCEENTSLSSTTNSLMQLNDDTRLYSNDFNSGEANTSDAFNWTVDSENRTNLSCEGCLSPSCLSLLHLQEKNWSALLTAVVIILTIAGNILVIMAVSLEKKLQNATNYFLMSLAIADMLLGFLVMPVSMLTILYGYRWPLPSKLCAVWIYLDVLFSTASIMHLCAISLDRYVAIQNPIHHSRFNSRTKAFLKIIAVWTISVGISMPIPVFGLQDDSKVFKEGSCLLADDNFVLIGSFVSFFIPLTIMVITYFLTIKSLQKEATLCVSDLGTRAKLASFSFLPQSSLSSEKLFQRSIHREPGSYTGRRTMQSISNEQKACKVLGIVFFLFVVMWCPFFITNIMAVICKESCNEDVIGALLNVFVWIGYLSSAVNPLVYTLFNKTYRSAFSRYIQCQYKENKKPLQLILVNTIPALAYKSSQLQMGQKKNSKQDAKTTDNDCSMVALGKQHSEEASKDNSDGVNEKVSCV

SMILES: Cc1nn(C)c(C)c1-c1cccc(CCN(C)C)c1
pKi [2]: 8.60

SMILES: Cc1nn(C)c(C)c1-c1ccc(O)c(CCN(C)C)c1
pKi [2]: 9.33

SMILES: CCn1cncc1-c1c[nH]c2ccc(OC)cc12
CLint scaled [1]: 3.69 mL/min/kg
Kp [3]: 6.34

SMILES: COc1cccc(CCN2CCN(c3ccccc3-c3ccccc3)CC2)c1
pKi [4]: 8.12
pKi [5]: 7.70

SMILES: COc1cccc(CCN2CCN(c3ccccc3OC)CC2)c1
pKi [4]: 7.61
pKi [5]: 8.63

Results, then the compound that gave them:

CLint scaled [1]: 6.3 mL/min/kg
SMILES: CCn1cncc1-c1c[nH]c2ccc(I)cc12

pKi [6]: 8.19
SMILES: Clc1ccc(-c2nn(Cc3ccccc3)c3c2CCNCC3)cc1 [JNJ-18038683 FREE BASE]

pKi [7]: 7.05
SMILES: O=C1c2cccc3cccc(c23)N1CCCCCN1CCN(c2ccccc2)CC1 [UCM-5600]

pKi [2]: 8.40
SMILES: CNC(=O)CN1c2ccccc2C2CCN(CCCCC34CCCc5cccc(c53)NC4=O)CC21 (centres undefined)

pKi [8]: 8.70 to 8.92
pKi [9]: 8.70 to 8.92
SMILES: Cc1ccc2c(c1)c1c(n2CCc2ccccc2)CCN(C)C1 [MARITUPIRDINE]
